Target: T1, EDG-1/S1P1 receptor (Homo sapiens, UniProt P21453)
T1 construct: expressed in transfected cells; host or cells: human osteogenic sarcoma U2OS cells (EDG-1 Transfluor U2OS WT Clone #37)
Assay: In vitro cell based receptor activation assay - Transfluor assay
Settings: EDG-1 Transfluor U2OS WT Clone #37 cells; beta-arrestin GFP relocalization; 375 nM or 750 nM S1P ligand
From the text: A. In Vitro Cell Based Receptor Activation Assay-Transfluor Assay
This cell-based assay was designed to assess the ability of small molecule antagonists to inhibit activation of the GPCR S1P1 in the presence of its cognate ligand S1P. The assay used technology initially developed by Norak Biosciences (Xsira Pharmaceutical) and presently owned by Molecular Devices. A human osteogenic sarcoma (U2OS) cell line overexpressing the EDG-1/S1P1) receptor as well as a beta-arrestin/green fluorescent protein (GFP) construct hereafter termed EDG-1 Transfluor U2OS WT Clone #37 was employed.
Using a high content screening approach (Cellomics Arrayscan), receptor activity was measured by assessment of the relocalization of beta-arrestin GFP in response to stimulation of EDG-1 by S1P. Specifically, EDG-1 Transfluor U2OS WT Clone #37 cells were plated at a density of 6250 cells in 40 uL medium per well in 384 well plastic bottomed microtiter plates (BD Falcon) and incubated overnight at 37° C./5% CO2. Prior to screening, compounds were dissolved in 100% dimethyl sulfoxide (DMSO) to a final stock concentration of 10 mM. […] Plates were then sealed and analysed on the Cellomics Arrayscan using the GPCR signalling algorithm. EC50 values were then calculated using IDBS ActivityBase software.

T1 sequence (P21453 whole entry): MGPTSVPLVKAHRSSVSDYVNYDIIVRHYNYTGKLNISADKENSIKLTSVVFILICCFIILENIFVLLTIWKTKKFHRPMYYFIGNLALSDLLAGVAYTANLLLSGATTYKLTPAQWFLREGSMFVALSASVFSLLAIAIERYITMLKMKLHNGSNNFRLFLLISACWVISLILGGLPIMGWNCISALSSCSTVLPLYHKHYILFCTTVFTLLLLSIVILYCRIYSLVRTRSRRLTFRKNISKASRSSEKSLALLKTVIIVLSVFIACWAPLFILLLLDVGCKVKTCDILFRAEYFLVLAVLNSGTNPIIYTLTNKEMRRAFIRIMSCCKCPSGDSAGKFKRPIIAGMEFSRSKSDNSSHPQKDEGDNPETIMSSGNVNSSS

EC50: 680 nM
SMILES: CCc1c(C(C)NS(=O)(=O)c2ccc(Cl)cc2)n[nH]c1C (stereo not shown) [Example 1]

— US20090111860A1, “SULFONAMIDE COMPOUNDS USEFUL AS ADG RECEPTOR MODULATORS” (ASTRAZENECA AB, priority 2006, published 2009)
